US20150139987A1, “TREATMENT OF HOMOZYGOUS FAMILIAL HYPERCHOLESTEROLEMIA” (CymaBay Therapeutics, Inc., priority 2013, published 2015)
Read-outs that look alike come from different tables or passages of the source.

Tests used:
LDL particle size = conditions: pattern B <25.75 nm, I 25.75-26.34 nm, A >26.34 nm; US 2010-0152295; cited from earlier work
[1] = test system: subjects with mixed dyslipidemia; conditions: cited from earlier work; for reduction of LDL-C: 100 mg/day; for reduction of alkaline phosphatase: control group 4%
subjects with HoFH = experiment: Example 1: study with MBX-8025 in HoFH; type: in vivo, human; conditions: MBX-8025 L-lysine dihydrate salt 50, 100, or 200 mg/day
Procedure: Subjects are permitted their usual other medications, including lipid-lowering treatments. […] MRIs of the subjects' livers are taken every 4 weeks during the study and 4 weeks after study completion, to determine hepatic fat. At each visit, after a 12-hour fast, blood is drawn and urine collected; and a standard metabolic panel, complete blood count, and standard urinalysis are performed. Blood is analyzed for TC, HDL-C, LDL-C, VLDL-C, TG, and apoB. The subjects also maintain health diaries, which are reviewed at each visit.

[2] = test system: knockout mice lacking LDLR; experiment: Lipid lowering in knockout mice lacking LDLR; type: in vivo
PPARα = target: T1, PPARα (Homo sapiens, UniProt Q07869); experiment: Specificity for PPARδ compared with PPARα; type: biochemical
T1 sequence (Q07869 1-468): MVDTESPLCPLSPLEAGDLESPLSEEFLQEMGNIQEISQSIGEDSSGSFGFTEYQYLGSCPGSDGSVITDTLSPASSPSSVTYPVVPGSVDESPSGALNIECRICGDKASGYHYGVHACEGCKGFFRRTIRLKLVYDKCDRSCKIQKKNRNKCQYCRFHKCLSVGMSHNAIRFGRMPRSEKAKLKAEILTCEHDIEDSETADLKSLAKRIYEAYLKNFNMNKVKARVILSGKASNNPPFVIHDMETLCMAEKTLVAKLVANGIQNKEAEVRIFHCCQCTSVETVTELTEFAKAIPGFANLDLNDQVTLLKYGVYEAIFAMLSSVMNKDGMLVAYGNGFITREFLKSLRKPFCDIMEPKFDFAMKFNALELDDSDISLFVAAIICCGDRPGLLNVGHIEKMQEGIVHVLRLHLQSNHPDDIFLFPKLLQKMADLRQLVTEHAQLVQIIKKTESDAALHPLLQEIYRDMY
Excerpt: (§1) PPARδ activation stimulates fatty acid oxidation and utilization, improves plasma lipid and lipoprotein metabolism, glucose utilization, and mitochondrial respiration, and preserves stem cell homeostasis.

[3] = target: T2, peroxisome proliferator-activated receptor-δ (PPARδ) (Homo sapiens, UniProt Q03181); experiment: PPARδ agonist potency; type: biochemical
T2 sequence (Q03181 1-441): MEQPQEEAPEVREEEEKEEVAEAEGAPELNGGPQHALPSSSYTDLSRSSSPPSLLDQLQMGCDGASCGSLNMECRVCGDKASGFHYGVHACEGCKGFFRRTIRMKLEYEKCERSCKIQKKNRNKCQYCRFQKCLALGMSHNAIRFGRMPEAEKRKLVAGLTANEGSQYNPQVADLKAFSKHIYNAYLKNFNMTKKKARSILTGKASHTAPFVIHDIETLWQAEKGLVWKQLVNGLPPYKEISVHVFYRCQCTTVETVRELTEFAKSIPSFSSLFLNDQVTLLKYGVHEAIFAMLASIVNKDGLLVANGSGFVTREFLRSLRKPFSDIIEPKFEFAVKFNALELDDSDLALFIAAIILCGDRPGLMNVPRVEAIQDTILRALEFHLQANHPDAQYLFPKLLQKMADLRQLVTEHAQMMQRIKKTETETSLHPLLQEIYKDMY
Excerpt: as §1

[4] = test system: healthy volunteers with hypercholesterolemia; conditions: cited from earlier work
patients with HoFH [5] = conditions: cited from earlier work
patients with HeFH [6] = conditions: cited from earlier work
[7] = test system: patients with hypercholesterolemia; conditions: week 12; sc 50, 100, 150 mg twice monthly or 200, 300 mg once monthly; cited from earlier work
[8] = test system: patients with HoFH, HeFH, severe hyperlipidemia, high-risk coronary heart disease; conditions: human, in vivo; cited from earlier work
patients with HoFH [9] = conditions: added to maximally tolerated lipid lowering medications in HoFH patients; cited from earlier work
[10] = in vivo, cited from earlier work
apoB mRNA = conditions: HepG2, Hep3B, human and cynomolgus monkey primary hepatocytes; cited from earlier work
patients with HeFH [11] = conditions: cited from earlier work; remark: listed apart in the source
[12] = test system: hypercholesterolemic subjects; conditions: cited from earlier work
[13] = alone and in combination with atorvastatin, 8 weeks

CCO[C@H](COc1ccc(C(F)(F)F)cc1)CSc1ccc(OCC(=O)O)c(C)c1 [MBX-8025, (R)-2-(4-((2-ethoxy-3-(4-(trifluoromethyl)phenoxy)propyl)thio)-2-methylphenoxy)acetic acid]
LDL particle size pattern conversion (LDL particle size): converts LDL particle size pattern I to pattern A; and from pattern B to pattern I or A | reduction of LDL-C ([1]; tertile with the highest starting LDL-C levels (187-205 mg/dL)): 35% | reduction of LDL-C ([1]; total population treated): 22% | decrease of LDL-S/VS ([1]; 8 weeks): 40-48% | increase of LDL-L ([1]; 8 weeks): 34-44% | reduction of apoB 100 compared to placebo ([1]; MBX-8025 50 or 100 mg alone and in combination with atorvastatin 20 mg, 8 weeks): 20-38% | raising of HDL-C [1, 13]: 1-12% | reduction of LDL compared to placebo [1, 13]: 18-43% | reduction of free fatty acids compared to placebo [1, 13]: 16-28% | reduction of high-sensitivity C-reactive protein compared to placebo [1, 13]: 43-72% | reduction of non-HDL-C compared to placebo [1, 13]: 18-41% | reduction of triglycerides compared to placebo [1, 13]: 26-30% | reduction of γ-glutamyl transpeptidase ([1]; control group 3%): 24-28% | reduction of alkaline phosphatase [1]: 32-43% | insulin sensitivity (HOMA-IR, fasting plasma glucose, insulin) ([1]; in vivo): increases insulin sensitivity | reduction of the percentage of subjects meeting the criteria for metabolic syndrome ([1]; in vivo): > 2 fold | safety and tolerability ([1]; in vivo): safe and generally well-tolerated | serum aminotransferases ([1]; in vivo): reducing serum aminotransferases | waist circumference and lean body mass ([1]; in vivo): trends towards a decrease in waist circumference and increase in lean body mass | effect on TC, LDL-C, VLDL-C, TG, apoB and HDL-C (subjects with HoFH): dose-dependent lowering of TC, LDL-C, VLDL-C, TG and apoB, and raising of HDL-C | LDLR dependence of LDL-C lowering [2]: do not require an effective LDLR to lower LDL-C and improve other lipid parameters | specificity for PPARδ compared with PPARα (PPARα): > 600 fold | EC50 [3]: 2 nM

CC(C)c1c(C(=O)Nc2ccccc2)c(-c2ccccc2)c(-c2ccc(F)cc2)n1CC[C@@H](O)C[C@@H](O)CC(=O)O [atorvastatin, reference compound]
decrease of LDL-L ([1]; 8 weeks): 30% | decrease of LDL-S/VS ([1]; 8 weeks): 25% | increase of γ-glutamyl transpeptidase ([1]; 8 weeks): 2% | reduction of alkaline phosphatase [1]: 6%

O=C(NC1CCN(CCCCC2(C(=O)NCC(F)(F)F)c3ccccc3-c3ccccc32)CC1)c1ccccc1-c1ccc(C(F)(F)F)cc1 [lomitapide, N-(2,2,2-trifluoroethyl)-9-(4-(4-(4′-(trifluoromethyl)-[1,1′-biphenyl]-2-ylcarboxamido)piperidin-1-yl)butyl)-9H-fluorene-9-carboxamide]
reduction of LDL-C [4]: up to 65% | patients reporting gastrointestinal adverse reactions (patients with HoFH [5]; 27 of 29 patients, Phase 3 trial): 93% | patients reporting vomiting, dyspepsia and abdominal pain (each) (patients with HoFH [5]; AEs reported by 8 or more of 29 patients): ≥ 28% | patients reporting diarrhea (patients with HoFH [5]; Phase 3 trial, 29 patients): 79% | patients reporting nausea (patients with HoFH [5]; Phase 3 trial, 29 patients): 65% | patients who discontinued the trial for AEs (patients with HoFH [5]; of the 29 patients): Five

Alirocumab: anti-PCSK9 antibody
reduction in LDL-C (patients with HeFH [6]; 150 mg/2 weeks sc): 68% | reduction in LDL-C (patients with HeFH [6]; 150 mg/4 weeks sc): 29% | tolerability (patients with HeFH [6]; in vivo): well tolerated

Bococizumab: anti-PCSK9 antibody
effect on LDL-C [7]: significant reductions in LDL-C at week 12

mipomersen
alanine aminotransferase ≧3× upper limit of normal [8]: 10% | aspartate aminotransferase ≧3× upper limit of normal [8]: 16% | flu-like symptoms (such as fatigue, fever, and chills) [8]: 30% | injection site reactions [8]: 84% | patients who discontinued for an adverse event or serious adverse event [8]: 18% | patients who discontinued for other reasons [8]: 4% | patients who discontinued for patient withdrawal [8]: 6% | reduction of LDL-C (patients with HoFH [9]): 25% | absorption time to maximum concentration ([10]; sc): 3 to 4 h | distribution half-life ([10]; sc): 2 to 5 h | elimination half-life ([10]; sc): 1-2 months | time to steady-state plasma trough [10]: ≤ 6 months | effect on apoB mRNA, protein, and secreted protein (apoB mRNA): selectively reduced apoB mRNA, protein, and secreted protein in a concentration- and time-dependent manner

B1: evolocumab: anti-PCSK9 antibody (antibody, chains of the INN, looked up, V domains shown)
VH: EVQLVQSGAEVKKPGASVKVSCKASGYTLTSYGISWVRQAPGQGLEWMGWVSFYNGNTNYAQKLQGRGTMTTDPSTSTAYMELRSLRSDDTAVYYCARGYGMDVWGQGTTVTVSS
VL: ESALTQPASVSGSPGQSITISCTGTSSDVGGYNSVSWYQQHPGKAPKLMIYEVSNRPSGVSNRFSGSKSGNTASLTISGLQAEDEADYYCNSYTSTSMVFGGGTKLTVL
effect on LDL-C relative to placebo (patients with HeFH [11]; 140 mg every 2 weeks or 420 mg every month sc): Significant reductions in LDL-C | muscle-related AEs (patients with HeFH [11]; in vivo): 5% | nasopharyngitis (patients with HeFH [11]; in vivo): 9% | tolerability (patients with HeFH [11]; in vivo): well tolerated | reduction of LDL-C levels [12]: more than 50%
